Reference: patent publication US9884839B2, “Inhibitors of 17Beta-hydroxysteroid dehydrogenases type 1 and type 2” (ElexoPharm GmbH, priority 2014, dated 2018)
Several values for one entry are separate records, joined by “and”; a condition that tells them apart may be missing. Equal values may be shown once. Read-outs that look alike come from different tables or passages of the source.

Assays:
Type in all cases: biochemical
rat 17β-HSD2 = molecular target: T1, rat 17β-HSD2 (Rattus norvegicus, UniProt Q62730); assay: Inhibition of rat 17β-HSD2 (liver microsomal fraction)
T1 construct: The pellet fractions containing the microsomal 17β-HSD2 were used for the determination of E1 formation; from tissue; host or cells: rat liver, microsomal fraction
T1 sequence (Q62730 1-381): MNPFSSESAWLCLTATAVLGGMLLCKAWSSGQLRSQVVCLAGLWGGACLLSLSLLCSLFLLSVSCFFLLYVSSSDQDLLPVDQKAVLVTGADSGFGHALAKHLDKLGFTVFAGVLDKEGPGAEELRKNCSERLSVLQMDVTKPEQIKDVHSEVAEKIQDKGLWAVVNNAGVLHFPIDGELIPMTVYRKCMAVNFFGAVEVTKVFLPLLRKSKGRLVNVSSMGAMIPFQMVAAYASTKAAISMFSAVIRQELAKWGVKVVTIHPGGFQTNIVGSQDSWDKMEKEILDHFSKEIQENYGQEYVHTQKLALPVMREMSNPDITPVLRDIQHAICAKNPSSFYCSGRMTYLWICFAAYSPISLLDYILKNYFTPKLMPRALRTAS
Experimental: (§1) Microsomal 17β-HSD2 fractions were obtained from mouse or rat liver. Fresh liver tissues were processed as described for the human placental 17β-HSD2 preparation. The pellet fractions containing the microsomal 17β-HSD2 were used for the determination of E1 formation.
(§2) The conversion rate was calculated after analysis of the resulting chromatograms according to the following equation: % conversion=[% E1/(% E1+% E2)]×100

rat 17β-HSD1 = molecular target: T2, rat 17β-HSD1 (Rattus norvegicus, UniProt P51657); assay: Inhibition of rat 17β-HSD1 (recombinant, HEK293 lysate); settings: for inhibition at […] / % Inhibition r17β-HSD1: Cmpd conc. 250 nM
T2 construct: made in house; host or cells: HEK293 cells, transient transfection; 1,000 g supernatant of the cell lysate
T2 sequence (P51657 1-344): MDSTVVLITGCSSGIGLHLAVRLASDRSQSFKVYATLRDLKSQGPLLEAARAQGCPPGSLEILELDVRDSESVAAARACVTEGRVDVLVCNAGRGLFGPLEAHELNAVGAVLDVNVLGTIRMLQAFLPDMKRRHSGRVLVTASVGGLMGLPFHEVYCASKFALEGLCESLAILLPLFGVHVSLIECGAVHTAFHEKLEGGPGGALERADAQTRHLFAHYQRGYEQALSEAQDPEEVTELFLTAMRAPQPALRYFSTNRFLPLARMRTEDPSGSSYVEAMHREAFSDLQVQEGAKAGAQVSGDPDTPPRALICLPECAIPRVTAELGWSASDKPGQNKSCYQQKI

human 17β-HSD1 = molecular target: T3, human 17β-HSD1 (Homo sapiens, UniProt P14061); assay: Inhibition of human 17β-HSD1 (conversion of [3H]-E1 to E2, HPLC radioflow detection); settings: for inhibition at 0.1 µM: read-out: % inhibition h17β-HSD1 @ 100 nM, compound 100 nM; for IC50: read-out: IC50 [nM] h17β-HSD1; for inhibition at 1 µM: read-out: % inhibition h17β-HSD1 @ 1 μM
T3 construct: For the partial purification of 17β-HSD1, the cytosolic fraction was precipitated with ammonium sulfate; from tissue; host or cells: human placenta, cytosolic fraction, ammonium sulfate precipitate
T3 sequence (P14061 1-328): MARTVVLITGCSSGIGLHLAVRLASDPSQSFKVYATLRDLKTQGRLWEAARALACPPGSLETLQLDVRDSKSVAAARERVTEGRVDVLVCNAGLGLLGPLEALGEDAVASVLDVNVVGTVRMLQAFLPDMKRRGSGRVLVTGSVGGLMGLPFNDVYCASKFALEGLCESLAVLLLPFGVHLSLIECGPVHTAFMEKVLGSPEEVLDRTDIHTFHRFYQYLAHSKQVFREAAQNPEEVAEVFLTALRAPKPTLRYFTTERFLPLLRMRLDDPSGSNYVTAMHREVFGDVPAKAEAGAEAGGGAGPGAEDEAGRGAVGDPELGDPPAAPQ

mouse 17β-HSD1 = molecular target: T4, mouse 17β-HSD1 (Mus musculus, UniProt P51656); assay: Inhibition of mouse 17β-HSD1 (recombinant, HEK293 lysate)
T4 construct: made in house; host or cells: HEK293 cells, transient transfection; 1,000 g supernatant of the cell lysate
T4 sequence (P51656 1-344): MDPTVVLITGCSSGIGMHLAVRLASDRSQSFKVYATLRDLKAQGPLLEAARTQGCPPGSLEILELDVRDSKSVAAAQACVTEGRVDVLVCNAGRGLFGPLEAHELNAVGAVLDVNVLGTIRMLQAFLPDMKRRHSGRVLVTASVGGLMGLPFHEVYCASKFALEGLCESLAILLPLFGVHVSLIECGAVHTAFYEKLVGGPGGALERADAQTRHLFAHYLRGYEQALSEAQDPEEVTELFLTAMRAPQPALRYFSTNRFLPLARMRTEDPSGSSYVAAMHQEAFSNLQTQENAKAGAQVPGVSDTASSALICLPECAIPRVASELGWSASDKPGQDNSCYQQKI

human 17β-HSD2 = molecular target: T5, human 17β-HSD2 (Homo sapiens, UniProt P37059); assay: Inhibition of human 17β-HSD2 (conversion of [3H]-E2 to E1); settings: for inhibition at 1 µM: read-out: % inhibition h17β-HSD2 @ 1 μM; for IC50: read-out: IC50 [nM] h17β-HSD2
T5 construct: 17β-HSD2 was obtained from the microsomal fraction; from tissue; host or cells: human placenta, microsomal fraction
T5 sequence (P37059 1-387): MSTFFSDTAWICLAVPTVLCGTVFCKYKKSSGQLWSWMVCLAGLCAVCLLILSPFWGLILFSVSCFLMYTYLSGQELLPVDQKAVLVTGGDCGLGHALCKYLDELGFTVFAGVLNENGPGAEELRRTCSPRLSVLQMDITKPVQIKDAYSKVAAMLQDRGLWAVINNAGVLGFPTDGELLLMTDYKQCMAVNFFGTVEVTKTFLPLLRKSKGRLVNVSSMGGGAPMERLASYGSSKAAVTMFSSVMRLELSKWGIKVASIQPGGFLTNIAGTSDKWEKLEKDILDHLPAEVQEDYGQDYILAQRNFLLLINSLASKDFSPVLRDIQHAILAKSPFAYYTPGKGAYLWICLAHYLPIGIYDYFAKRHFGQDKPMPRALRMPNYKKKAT
Experimental: Fresh human placenta was homogenized, and cytosolic fraction and microsomes were separated by differential centrifugation at 1,000 g, 10,000 g and 150,000 g.
as §2

mouse 17β-HSD2 = molecular target: T6, mouse 17β-HSD2 (Mus musculus, UniProt P51658); assay: Inhibition of mouse 17β-HSD2 (liver microsomal fraction); settings: for IC50: read-out: IC50 m17β-HSD2
T6 construct: The pellet fractions containing the microsomal 17β-HSD2 were used for the determination of E1 formation; from tissue; host or cells: mouse liver, microsomal fraction
T6 sequence (P51658 1-381): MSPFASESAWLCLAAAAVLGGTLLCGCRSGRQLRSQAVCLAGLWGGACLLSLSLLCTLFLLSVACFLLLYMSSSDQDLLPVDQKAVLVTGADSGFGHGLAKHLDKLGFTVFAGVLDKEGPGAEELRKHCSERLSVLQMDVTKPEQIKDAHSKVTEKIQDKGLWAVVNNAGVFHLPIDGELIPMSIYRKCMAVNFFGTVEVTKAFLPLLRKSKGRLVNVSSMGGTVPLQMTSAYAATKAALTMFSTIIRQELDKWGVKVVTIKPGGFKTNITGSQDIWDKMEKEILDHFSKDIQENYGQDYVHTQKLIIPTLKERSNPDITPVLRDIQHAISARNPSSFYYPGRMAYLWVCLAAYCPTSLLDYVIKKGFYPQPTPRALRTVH
Experimental: as §1, §2

[1] = read-out: % Inhibition r17β-HSD2
[2] = read-out: % Inhibition r17β-HSD1
[3] = read-out: % inhibition m17β-HSD1 @ 1 μM
[4] = read-out: % inhibition m17β-HSD2 @ 1 μM
[5] = human placental cytosolic enzyme, E1 500 nM, NADH, Tables 1, 4-11
[6] = Tables 4 and 6, no % sign and concentration not given, Table 1 lists these compounds as inhibition @ 1 μM, read-out: IC50 [nM] or % inhibition m17β-HSD1 (bare number, kind not marked)
[7] = read-out: Inhibition @ 1 μM m17β-HSD1
[8] = read-out: Inhibition @ 1 μM m17β-HSD2

SMILES	inhibition at […] (rat 17β-HSD2; [1])	inhibition at […] (rat 17β-HSD1; [2])	inhibition at 1 µM (mouse 17β-HSD1; [3])	inhibition at 1 µM (mouse 17β-HSD2; [4])	IC50 (human 17β-HSD1; [5])	inhibition at 1 µM (mouse 17β-HSD1; [6])	inhibition at 1 µM (mouse 17β-HSD1; [7])	inhibition at 1 µM (mouse 17β-HSD2; [8])	IC50 (human 17β-HSD2)	IC50 (mouse 17β-HSD2)	also measured
O=C(c1ccc(-c2ccc(F)cc2F)s1)c1cccc(O)c1F [C, reference compound]	20%	35%	18%	75%							inhibition at 0.1 µM (human 17β-HSD1): 92%; inhibition at 0.1 µM (human 17β-HSD2; read-out: % inhibition h17β-HSD2 @ 100 nM): 87%
O=C(c1ccc(Br)s1)c1c(F)ccc(O)c1F [Compound 1e, (5-Bromo-thiophen-2-yl)-(2,6-difluoro-3-hydroxy-phenyl)-methanone]	60%	5%	5%	80%							inhibition at 0.1 µM (human 17β-HSD1): 85%; inhibition at 0.1 µM (human 17β-HSD2; read-out: IC50 [nM] or % inhibition h17β-HSD1 (second column so headed, Table 9): % @ 100 nM): 71%
O=C(c1ccc(-c2ccc(F)cc2F)s1)c1c(F)ccc(O)c1F [Compound 10, (2,6-Difluoro-3-hydroxy-phenyl)-[5-(2,4-difluoro-phenyl)-thiophen-2-yl]-methan-one]	66%	63%			3.5 nM	41%	41%	67%			
COc1ccc(-c2ccc(C(=O)c3c(F)ccc(O)c3F)s2)cc1S(=O)(=O)N1CCOCC1 [Compound 19, (2,6-Difluoro-3-hydroxy-phenyl)-{5-[4-methoxy-3-(morpholine-4-sulfonyl)-phen-yl]-thiophen-2-yl}-methanone]		26%					58%	44%			% Inhibition r17β-HSD2 (rat 17β-HSD2): n.i.^c; inhibition at 1 µM (human 17β-HSD1): 79%; inhibition at 1 µM (human 17β-HSD2): 85%
O=C(c1ccc(-c2ccc(O)c(Cl)c2)s1)c1c(F)ccc(O)c1F [Compound 20, [5-(3-Chloro-4-hydroxy-phenyl)-thiophen-2-yl]-(2,6-difluoro-3-hydroxy-phenyl)-methanone]			50%	95%	0.5 nM		50%	82%	20 nM		inhibition at 0.5 µM (rat 17β-HSD2; [1]): 98%; inhibition at 0.5 µM (rat 17β-HSD1; Cmpd conc. 500 nM, read-out: % Inhibition r17β-HSD1): 48%
CC(=O)N1CCN(Cc2cc(-c3ccc(C(=O)c4c(F)ccc(O)c4F)s3)cc(Cl)c2O)CC1 [Compound 29, 1-(4-{3-Chloro-5-[5-(2,6-difluoro-3-hydroxy-benzoyl)-thiophen-2-yl]-2-hydroxy-benzyl}-piperazin-1-yl)-ethanone]							16%	40%	11 nM		% Inhibition r17β-HSD2 (rat 17β-HSD2): n.i.^c; % Inhibition r17β-HSD1 (rat 17β-HSD1): n.i.^c; IC50 (human 17β-HSD1): 2.1 nM
O=C(c1ccc(-c2cc(Cl)c(O)c(Cn3ccnn3)c2)s1)c1c(F)ccc(O)c1F [Compound 32, [5-(3-Chloro-4-hydroxy-5-[1,2,3]triazol-1-ylmethyl-phenyl)-thiophen-2-yl]-(2,6-difluoro-3-hydroxy-phenyl)-methanone]	66%										% Inhibition r17β-HSD1 (rat 17β-HSD1): n.i.^c; inhibition at 1 µM (human 17β-HSD1): 37%; Inhibition @ 1 μM m17β-HSD1 (mouse 17β-HSD1; compound 1 μM, Table 1, bare numbers): n.i.^c; inhibition at 1 µM (human 17β-HSD2): 30%
Nc1cccc(-c2ccc(C(=O)c3cc(F)c(F)c(O)c3F)s2)c1 [Compound 35, [5-(3-Aminophenyl)thiophen-2-yl](2,4,5-trifluoro-3-hydroxyphenyl)methanone]	100%	46%			49 nM	13%	9%	80%	5 nM	177 nM	
O=C(c1ccc(-c2cccc(NS(=O)(=O)c3ccccc3OC(F)(F)F)c2)s1)c1cc(F)c(F)c(O)c1F [Compound 37, N-{3-[5-(2,4,5-Trifluoro-3-hydroxybenzoyl)thiophen-2-yl]phenyl}-2-trifluoromethoxybenzenesulfonamide]	93%	29%	55%		5.8 nM		55%			79 nM and 22 nM	
O=C(c1ccc(-c2ccc(F)cc2F)s1)c1cc(F)c(F)c(O)c1F [Compound 40, [5-(2,4-Difluoro-phenyl)-thiophen-2-yl]-(2,4,5-trifluoro-3-hydroxy-phenyl)-methanone]	86%	58%				27.5%	28%		1.4 nM	326 nM	IC50 (human 17β-HSD1): 7.2 nM
